# Assay: Maximum tolerated dose study in Beagle dogs, escalated-dose oral administration
# Assay type: in vivo
# Conditions: both sexes, beagle, dog, in vivo; oral gavage, dose escalation
# Excerpt: The protocol and procedures involving the care and use of animals in this study was reviewed and approved by IACUC of QuBEST BIO prior to conduct (Approval no.: QBSIACUC-A18142). During the study, the care and use of animals will be conducted in accordance with all applicable guidelines of Animal Welfare Act. Non-naive one male and one female Beagle dogs (~16–24 months old, original supplier: ORIENTBIO Co., Ltd, Korea) were selected from the stock colony and assigned for the study. The route of administration was the oral (by gavage) route, which is the anticipated clinical route of exposure. Test article formulations were administered once via oral gavage. The day of 1st dosing was designated as Day 1. Each dose was administered via a syringe attached with 12-french feeding tube. A dose volume of 5 ml/kg was used and individual dose volumes were based on the most recent body weight. Each dose was followed by a distilled water of 5 ml. Each animal was observed twice daily (a.m. and p.m.) for mortality and moribundity; findings were recorded as they were observed. Cage side observations were made for each animal once daily; abnormal findings were recorded. […] Body weights were measured prior to each dosing. […] Prior to dosing and ~24 h post each dose, blood was collected as the same method and frequency with hematology analysis using no anticoagulant and then serum was separated by centrifugation and stored at freezer until analyze (AU 400, Olympus, Japan; […] 744 Na^+/K^+/[…] Analyzer, SIEMENS, Germany). In terminal procedures, all surviving animals were returned to the stock colony without necropsy. Toxicity studies were performed by QuBEST BIO Co., Ltd (Yongin, Korea).
# The objective of this study was to determine the maximum tolerated dose (MTD) of SLC-D011 following dose escalation by oral gavage to Beagle dogs.
# The study group was detailed in Text Table 1.
# Text Table 1. Study Group
# Dose Level Dose Conc. No. of Animals†
# Group Treatment (mg/kg) (mg/mL)
# †: Animals were re-used for each dose with at least 4-day wash-out period.
# The following parameters were evaluated in this study: mortality, clinical signs, body weights and clinical pathology parameters (hematology and serum biochemistry).
# Mortality and Clinical Observations
# All animals survived until end of the study. Test article-related clinical observations were limited to oily soft stool in the 100 mg/kg/day group animals and vomitus (frothy) and soft sto ol in the 400 […]
# Clinical Pathology Parameters (Hematology and Serum Chemistry) […]
# the 100 and 400 mg/kg group animals on approximately 24 hours post each dose, compared to pre […]
# Based on the results of this study, the maximum tolerated dose (MTD) of SLC-D011 was considered to […]
# Test article formulations were administered once via oral gavage. The day of 1st dosing was designated […]
# Each dose was administered via a syringe attached with 12-french feeding tube. A dose volume of 5 mL/kg was used and individual dose volumes were based on the most recent body weight. Each dose was followed by a distilled water of 5 mL. […]
# Each animal was observed twice daily (a.m. and p.m.) for mortality and moribundity; findings were recorded as they were observed. Cage side observations were made for each animal once daily; abnormal findings were recorded. Detailed observations were made for each animal once prior to treatment; abnormal findings (ranked/graded, if appropriate) or an indication the animal appears […]
# Body weights were measured prior to each dosing. […]
# Prior to each dosing and approximately 24 hours post each dose, blood samples for hematology examination were collected from the via cephalic vein into tubes with K2EDTA anticoagulant and […]
# Parameters Unit Measurement Method
# ⓐ RBC (Red blood cell count) 106/μL Electric Impedance […]
# ⓒ HGB (Hemoglobin conc.) g/dL Cyanmethemoglobin […]
structure (smiles),measurement,value
CC1(C)Oc2cc3oc(=O)ccc3cc2C[C@@H]1OC/C=C/c1ccccc1 [SLC-D011],MTD,> 400 mg/kg

# — PMC7782499, “Progerinin, an optimized progerin-lamin A binding inhibitor, ameliorates premature senescence phenotypes of Hutchinson-Gilford progeria syndrome” (Communications Biology, 2021)
